Assay results taken from patent publication US7754678B2, “Membrane penetrating peptides and uses thereof” (Aventis Pharmaceuticals Inc., priority 2000, dated 2010).

Legend:
5HT2A receptor = biological target: T1, 5HT2A receptor (Homo sapiens, UniProt P28223); assay: 5HT2A receptor activation, FLIPR calcium response; format: cell-based; details: 10 μM, 5HT2A receptor CHO stable cell line
T1 construct: expressed in transfected cells
Description: FIG. 4. Activation of serotonin 5HT2A receptor with hPER1-MPP fusion peptide. (A). hPER1-MPP and TAT-PTD peptides were synthesized alone or in fusion with either the first intracellular loop I1 ([…] (SEQ ID NO:10)), or the C-terminal Transmembrane 7 domain. TM7 ([…] (SEQ ID NO:11) derived from the 5HT2A receptor, genebank accession number, M86841). Receptor activities was assayed using standard FLIPR analysis and measuring endogenous and exogenous Ca^+2 levels. Peptide designations are as follows: T (TAT-PTD), P (hPER1-MPP), I1 (intracellular loop 1), T-I1 (TAT-PTD-I1), P-I1 (hPER1-MPP-I1), TM7 (C-terminal domain), TTM7 (TAT-PTD-TM7), PTM7 (hPER1-MPP-TM7), and S (Serotonin).
FIG. 4 (B). Dose response of PTM7 (closed circles) and TTM7 (closed diamonds) peptides. Serotonin (control, open triangle) was used at the maximum receptor stimulatory concentration of 10 μM.
One of the features of MPPs is their ability to cargo proteins and peptides into cells. We were successful in coupling hPER1-MPP to B-galactosidase and in delivering the fusion protein into cells in culture (data not shown), as has been described by Fawells et al., 1994 (Fawell, S., et al., Proc Natl Acad Sci USA. 91, 664-668 (1994)). However, to further extend the functional utility of MPPs, we tested hPER1-MPP in fusion with a physiologically relevant and biologically active peptide. […]

CHO cells [1] = assay: Membrane penetration (peptide internalization) assay of biotinylated synthetic peptides; format: cell-based, Chinese Hamster; details: for intracellular distribution / staining of internalized peptide: Streptavidin ALEXA or anti-Flag mAb staining; for cells penetrated by peptide: peptide 10 μM added to cells in culture
Description: FIG. 2. Membrane penetration assay in CHO cells. N-terminal biotinylated synthetic peptides hPER1-PTD, Flag-hPER1-PTD, Flag-TAT-PTD (positive control), and Flag-Flag (negative control) were assayed for their ability to penetrate cellular membranes in living CHO cells in culture. The subcellular localization of internalized peptides was determined using a two color staining method, either Streptavidin-Alexa 594 (red) or anti-flag mAb. The third column is an overlay. Confocal microscopy was employed to further confirm intracellular and intranuclear localization. Single section of confocal imaging is shown.
FIG. 3. Alanine scanning of hPER1-PDTs. Biotinylated hPER1-NPDs were synthesized with a single amino acid residue substitution at the indicated position with an alanine and assayed for membrane penetration in CHO cells. Cells were incubated for 10 minutes at 37 C. at a peptide concentration of 10 μM followed by washing, fixation, permeablization, and then detected with labeled Streptavidin Alexa-594 (red, 2 μg/ml) for 15 minutes at the RT. Control peptide was from hPER1 N-terminal amino acids residues 486-500.
Peptides are synthesized by a commercial vendor (Bio Synthesis). For peptides internalization, cells are plated into two-well Lab-Tek coverslips (Nunc Inc.) at a density of 2×10^5 cells/well and cultured overnight. The peptides are dissolved in DMSO diluted to indicated concentration with PBS. The cell monolayers were incubated with the appropriate peptide/PBS solution at 1 μM standard concentration for 10 min at room temperature (RT) unless otherwise specified. For experiments at 4° C., the protocol was the same except that all incubations were performed at 4° C. until the end of the fixation procedure.
The peptides are assayed for their ability to penetrate cellular membranes. Intracellular localization is assayed by direct staining with labeled Streptavidin ALEXA reagents or by indirect staining with anti-Flag mAb followed by the addition of labeled secondary antibodies.

CHO cells [2] = assay: β-galactosidase cargo delivery into cells (X-gal staining); format: cell-based, Chinese Hamster; details: chemically linked conjugates
Text: (§1) FIG. 6. hPER-PTD cargo's β-Galactosidase into cells: At least one feature of HIV TAT transducing peptide is its ability to cargo proteins into cells and tissues. We therefore sought to determine if hPER1 transducing peptide could cargo beta galactosidase into cells. To perform this experiment, we followed a protocol by Frankel et al. 1989 (19):7397-401, whereby, we chemically linked hPER1-PTD or hPER-PTD R7A to full length β-galactosidase and assayed for the ability of these conjugates and beta-galactosidase protein alone to transduce into CHO cells.
as §1, with “At” for “FIG. 6. hPER-PTD cargo's β-Galactosidase into cells: At”, “al. PNAS” for “al.”, “R7A (with Ala replacing Arg^7)” for “R7A”

T1 sequence (P28223 whole entry): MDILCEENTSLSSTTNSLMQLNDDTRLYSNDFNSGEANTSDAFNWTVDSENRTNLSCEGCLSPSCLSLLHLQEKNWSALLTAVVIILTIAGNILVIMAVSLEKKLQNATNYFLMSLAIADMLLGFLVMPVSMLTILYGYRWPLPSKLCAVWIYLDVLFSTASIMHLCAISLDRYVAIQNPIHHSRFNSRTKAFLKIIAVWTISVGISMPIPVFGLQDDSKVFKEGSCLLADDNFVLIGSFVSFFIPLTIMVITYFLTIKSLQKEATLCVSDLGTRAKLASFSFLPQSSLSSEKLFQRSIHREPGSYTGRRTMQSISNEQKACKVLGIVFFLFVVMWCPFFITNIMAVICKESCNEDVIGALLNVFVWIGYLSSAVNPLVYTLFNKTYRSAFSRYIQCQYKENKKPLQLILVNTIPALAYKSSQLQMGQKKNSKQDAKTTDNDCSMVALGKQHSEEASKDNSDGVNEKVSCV

NCCc1c[nH]c2ccc(O)cc12 [serotonin]
5HT2A receptor signaling, calcium response (5HT2A receptor): receptor signaling is activated

GDPKKKRKV [SV40, reference compound]
membrane penetrating ability in words (relative to wild-type hPER1-MPP, TAT-PTD or negative control) (CHO cells [1]): not all NLSs are PTDs

GKHRHERGHHRDRRER [Cyclin L ania-6a]
membrane penetrating ability in words (relative to wild-type hPER1-MPP, TAT-PTD or negative control) (CHO cells [1]): not all NLSs are PTDs

GKKKRKLSNRESAKRSR [beta Zip TF]
membrane penetrating ability in words (relative to wild-type hPER1-MPP, TAT-PTD or negative control) (CHO cells [1]): not all NLSs are PTDs

GKKTGKNRKLKSKRVKPRD [hPER2]
membrane penetrating ability in words (relative to wild-type hPER1-MPP, TAT-PTD or negative control) (CHO cells [1]): not all NLSs are PTDs

GMDYKDDDDKGMDYKDDDDK [Flag, reference compound]
intracellular distribution / staining of internalized peptide (CHO cells [1]): only barely discernible background staining

GMDYKDDDDKGSRRHHCRSKAKRSHH [Flag-hPER1]
intracellular distribution / staining of internalized peptide (CHO cells [1]): diffusely distributed throughout the cytoplasm, but concentrated within subnuclear domains
cells penetrated by peptide (CHO cells [1]): 100%

GMDYKDDDDKGYGRKKKRRQRRR [Flag-TAT, reference compound]
intracellular distribution / staining of internalized peptide (CHO cells [1]): diffusely distributed throughout the cytoplasm, but concentrated within subnuclear domains
cells penetrated by peptide (CHO cells [1]): 100%

GRRERNKMAAAKCRNRRR [C-FOS]
membrane penetrating ability in words (relative to wild-type hPER1-MPP, TAT-PTD or negative control) (CHO cells [1]): not all NLSs are PTDs

KTYRSAFSRYIQYKENKKPLQLI [TM7, C-terminal Transmembrane 7 domain peptide of the 5HT2A receptor]
5HT2A receptor signaling, calcium response (5HT2A receptor): TM7 alone nor any of the other peptides were able to generate a calcium response

R R H H C R S K A K R S R (RRHHCRSKAKRSR) [hPER1-PTD13]
membrane penetrating ability in words (relative to wild-type hPER1-MPP, TAT-PTD or negative control) (CHO cells [1]): little overall effect on the positive membrane penetrating potential

S R R H H C A S K A K R S R H H (SRRHHCASKAKRSRHH) [R7A]
membrane penetrating ability in words (relative to wild-type hPER1-MPP, TAT-PTD or negative control) (CHO cells [1]): reduced the detectable cytological signal to that observed for the negative control peptides

SRRHHCRSKAKRSRHH [hPER1-MPP, N-terminally biotinylated peptide of hPER1 amino acids 830-845]
membrane penetrating ability in words (relative to wild-type hPER1-MPP, TAT-PTD or negative control) (CHO cells [1]): efficiencies similar to the TAT-PTD peptide
time of internalization (CHO cells [1]): ≤ 5 min
intracellular distribution / staining of internalized peptide (CHO cells [1]): diffusely distributed throughout the cytoplasm, but concentrated within subnuclear domains
cells penetrated by peptide (CHO cells [1]): 100%

β-galactosidase protein: full length β-galactosidase alone
delivery of β-galactosidase into cells (enzymatic activity, blue color after X-gal) (CHO cells [2]): no blue staining reactivity
